Data taken from patent US10150760B2, “Compounds for use in preparing heterocyclic triazole agonists of the APJ receptor” (AMGEN INC., priority 2016, dated 2018).

Target: human APJ receptor (Homo sapiens (Human), UniProt P35414)
Experiment: [35S]GTPγS binding assay on membranes from CHO cells stably expressing human APJ receptor
Assay type: biochemical
Details: read-out: Activity hAPJ SPA EC50 IP
Method in brief: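 Membranes from CHO cells stably expressing human APJ incubated with ligand, 0.2 nM [35S]GTPγS and WGA SPA beads in HEPES pH 7.5 with 5 mM MgCl2, 200 mM NaCl, 3 μM GDP, 90 min at RT. Nonspecific binding defined with 100 μM GTPγS; EC50 by non-linear regression.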

Chain of human APJ receptor (P35414 whole entry): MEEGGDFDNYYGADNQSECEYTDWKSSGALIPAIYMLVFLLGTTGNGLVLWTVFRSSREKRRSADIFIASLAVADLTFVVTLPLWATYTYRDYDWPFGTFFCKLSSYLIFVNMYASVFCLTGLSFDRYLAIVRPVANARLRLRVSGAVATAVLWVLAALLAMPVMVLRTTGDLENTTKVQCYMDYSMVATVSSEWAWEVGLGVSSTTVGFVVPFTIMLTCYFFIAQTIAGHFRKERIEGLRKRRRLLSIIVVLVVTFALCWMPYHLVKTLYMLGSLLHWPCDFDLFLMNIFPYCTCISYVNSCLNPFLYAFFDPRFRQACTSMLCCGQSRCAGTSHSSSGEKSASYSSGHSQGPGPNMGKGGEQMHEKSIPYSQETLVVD

Compound	EC50 [nM]
COc1cccc(OC)c1-n1c(NS(=O)(=O)[C@@H](C)[C@H](OC)c2ncc(Cl)cn2)nnc1[C@H]1CCO[C@@H]1C (single isomer, unassigned) [Example 114.0, (1R,2S)-1-(5-chloropyrimidin-2-yl)-N-(4-(2,6-dimethoxyphenyl)-5-((2R,3R)-2-methyltetrahydrofuran-3-yl)-4H-1,2,4-triazol-3-yl)-1-methoxypropane-2-sulfonamide or (1R,2S)-1-(5-chloropyrimidin-2-yl)-N-(4-(2,6-dimethoxyphenyl)-5-((2S,3S)-2-methyltetrahydrofuran-3-yl)-4H-1,2,4-triazol-3-yl)-1-methoxypropane-2-sulfonamide]	110
COc1cccc(OC)c1-n1c(NS(=O)(=O)[C@@H](C)[C@H](OC)c2ncc(Cl)cn2)nnc1[C@H]1CCO[C@@H]1C (single isomer, unassigned) [Example 115.0, (1R,2S)-1-(5-chloropyrimidin-2-yl)-N-(4-(2,6-dimethoxyphenyl)-5-((2R,3S)-2-methyltetrahydrofuran-3-yl)-4H-1,2,4-triazol-3-yl)-1-methoxypropane-2-sulfonamide or (1R,2S)-1-(5-chloropyrimidin-2-yl)-N-(4-(2,6-dimethoxyphenyl)-5-((2S,3R)-2-methyltetrahydrofuran-3-yl)-4H-1,2,4-triazol-3-yl)-1-methoxypropane-2-sulfonamide]	210
COc1cccc(OC)c1-n1c(NS(=O)(=O)[C@@H](C)[C@H](OC)c2ncc(Cl)cn2)nnc1[C@H]1CCO[C@H]1C (single isomer, unassigned) [Example 116.0, (1R,2S)-1-(5-chloropyrimidin-2-yl)-N-(4-(2,6-dimethoxyphenyl)-5-((2R,3S)-2-methyltetrahydrofuran-3-yl)-4H-1,2,4-triazol-3-yl)-1-methoxypropane-2-sulfonamide or (1R,2S)-1-(5-chloropyrimidin-2-yl)-N-(4-(2,6-dimethoxyphenyl)-5-((2S,3R)-2-methyltetrahydrofuran-3-yl)-4H-1,2,4-triazol-3-yl)-1-methoxypropane-2-sulfonamide]	190
COc1cccc(OC)c1-n1c(NS(=O)(=O)[C@@H](C)[C@H](C)c2ncc(Cl)cn2)nnc1[C@H]1CCO[C@@H]1C (single isomer, unassigned) [Example 117.0, (2S,3R)-3-(5-chloropyrimidin-2-yl)-N-(4-(2,6-dimethoxyphenyl)-5-((2R,3R)-2-methyltetrahydrofuran-3-yl)-4H-1,2,4-triazol-3-yl)butane-2-sulfonamide or (2S,3R)-3-(5-chloropyrimidin-2-yl)-N-(4-(2,6-dimethoxyphenyl)-5-((2S,3S)-2-methyltetrahydrofuran-3-yl)-4H-1,2,4-triazol-3-yl)butane-2-sulfonamide]	49
COc1cccc(OC)c1-n1c(NS(=O)(=O)[C@@H](C)[C@H](C)c2ncc(Cl)cn2)nnc1[C@@H]1CCO[C@@H]1C (single isomer, unassigned) [Example 118.0, (2S,3R)-3-(5-chloropyrimidin-2-yl)-N-(4-(2,6-dimethoxyphenyl)-5-((2R,3S)-2-methyltetrahydrofuran-3-yl)-4H-1,2,4-triazol-3-yl)butane-2-sulfonamide or (2S,3R)-3-(5-chloropyrimidin-2-yl)-N-(4-(2,6-dimethoxyphenyl)-5-((2S,3R)-2-methyltetrahydrofuran-3-yl)-4H-1,2,4-triazol-3-yl)butane-2-sulfonamide]	270
COc1cccc(OC)c1-n1c(NS(=O)(=O)[C@@H](C)[C@H](C)c2ncc(Cl)cn2)nnc1[C@@H]1CCO[C@@H]1C (single isomer, unassigned) [Example 119.0, (2S,3R)-3-(5-chloropyrimidin-2-yl)-N-(4-(2,6-dimethoxyphenyl)-5-((2R,3S)-2-methyltetrahydrofuran-3-yl)-4H-1,2,4-triazol-3-yl)butane-2-sulfonamide or (2S,3R)-3-(5-chloropyrimidin-2-yl)-N-(4-(2,6-dimethoxyphenyl)-5-((2S,3R)-2-methyltetrahydrofuran-3-yl)-4H-1,2,4-triazol-3-yl)butane-2-sulfonamide]	160
COc1cccc(OC)c1-n1c(NS(=O)(=O)[C@@H](C)[C@H](C)c2ncc(C)cn2)nnc1[C@H]1CCO[C@@H]1C (single isomer, unassigned) [Example 120.0, (2S,3R)-N-(4-(2,6-dimethoxyphenyl)-5-((2S,3S)-2-methyltetrahydrofuran-3-yl)-4H-1,2,4-triazol-3-yl)-3-(5-methylpyrimidin-2-yl)butane-2-sulfonamide or (2S,3R)-N-(4-(2,6-dimethoxyphenyl)-5-((2R,3R)-2-methyltetrahydrofuran-3-yl)-4H-1,2,4-triazol-3-yl)-3-(5-methylpyrimidin-2-yl)butane-2-sulfonamide]	270
COc1cccc(OC)c1-n1c(NS(=O)(=O)[C@@H](C)[C@H](C)c2ncc(C)cn2)nnc1[C@@H]1CCO[C@@H]1C (single isomer, unassigned) [Example 121.0, (2S,3R)-N-(4-(2,6-dimethoxyphenyl)-5-((2R,3S)-2-methyltetrahydrofuran-3-yl)-4H-1,2,4-triazol-3-yl)-3-(5-methylpyrimidin-2-yl)butane-2-sulfonamide or (2S,3R)-N-(4-(2,6-dimethoxyphenyl)-5-((2S,3R)-2-methyltetrahydrofuran-3-yl)-4H-1,2,4-triazol-3-yl)-3-(5-methylpyrimidin-2-yl)butane-2-sulfonamide]	880
COc1cccc(OC)c1-n1c(NS(=O)(=O)[C@@H](C)[C@H](C)c2ncc(C)cn2)nnc1[C@H]1CCO[C@@H]1C (single isomer, unassigned) [Example 122.0, (2S,3R)-N-(4-(2,6-dimethoxyphenyl)-5-((2S,3S)-2-methyltetrahydrofuran-3-yl)-4H-1,2,4-triazol-3-yl)-3-(5-methylpyrimidin-2-yl)butane-2-sulfonamide or (2S,3R)-N-(4-(2,6-dimethoxyphenyl)-5-((2R,3R)-2-methyltetrahydrofuran-3-yl)-4H-1,2,4-triazol-3-yl)-3-(5-methylpyrimidin-2-yl)butane-2-sulfonamide]	930
COc1cccc(OC)c1-n1c(NS(=O)(=O)[C@@H](C)[C@H](C)c2ncc(C)cn2)nnc1[C@@H]1CCO[C@@H]1C (single isomer, unassigned) [Example 123.0, (2S,3R)-N-(4-(2,6-dimethoxyphenyl)-5-((2R,3S)-2-methyltetrahydrofuran-3-yl)-4H-1,2,4-triazol-3-yl)-3-(5-methylpyrimidin-2-yl)butane-2-sulfonamide or (2S,3R)-N-(4-(2,6-dimethoxyphenyl)-5-((2S,3R)-2-methyltetrahydrofuran-3-yl)-4H-1,2,4-triazol-3-yl)-3-(5-methylpyrimidin-2-yl)butane-2-sulfonamide]	700
CO[C@H](c1ncc(Cl)cn1)[C@H](C)S(=O)(=O)Nc1nnc([C@H]2CCOC2)n1C1(C)CC1 (single isomer, unassigned) [Example 124.0, (1R,2S)-1-(5-chloropyrimidin-2-yl)-1-methoxy-N-(4-(1-methylcyclopropyl)-5-((R)-tetrahydrofuran-3-yl)-4H-1,2,4-triazol-3-yl)propane-2-sulfonamide or (1R,2S)-1-(5-chloropyrimidin-2-yl)-1-methoxy-N-(4-(1-methylcyclopropyl)-5-((S)-tetrahydrofuran-3-yl)-4H-1,2,4-triazol-3-yl)propane-2-sulfonamide]	440
